test: Stabilization effect of surfactant on tetrakis aminium dye during emulsification (Epolight 1117 retention); type: physicochemical; details: retention in particles after emulsification; surfactant in aqueous phase as in label
Description: IR absorbing agent weight ratio=4.4:1). The organic phase (polymer and IR absorbing agents dissolved in dichloromethane) was injected directly into the aqueous phase (PVA solution with SDS surfactant) at the tip of the Turrax's roto-stator (i.e. directly into the flow being sheared by the roto-stator). The shear mixing at 8000 RPM was continued for 30 minutes. The resulting mixture was decanted into an open-mouth container and stirred magnetically for 16 hours. A solid suspension of particles containing IR absorbing agent was obtained. The solid suspension was centrifuged at 5000 RPM for 30 minutes and the particles were collected. The collected particles were washed with distilled water by resuspending the particles into distilled water and centrifuging as before to collect the particles. This washing process was repeated three times to remove residual PVA. The resulting MMA/BMA copolymer particles containing IR absorbing agent were air-dried. In the emulsion method of encapsulation, a surfactant is necessary to help keep the emulsion stable. While Aerosol® TR-70 (sodium bis(tridecyl) sulfosuccinate) could be used as an emulsifier to prepare polymer particles encapsulating Epolight™ 1117 tetrakis aminium dye, TR-70 only provided limited stabilization effects on the tetrakis aminium dye. […]

% Epolight ™ 1117 Retention	Compound
85-90%	CCCCCCCCCCCCOS(=O)(=O)[O-].[Na+] [Sodium dodecyl sulfate, sodium dodecyl sulfate]
50%	CCCCCCCCCCCCCOC(=O)CC(C(=O)OCCCCCCCCCCCCC)S(=O)(=O)O.[Na] (stereo not shown) [TR-70, sodium bis(tridecyl) sulfosuccinate]

test: Leaching testing of curcumin/Epolight IR 1117 B-805 particles with and without VTMS shell (FIG. 13); type: physicochemical; details: B-805 particles with VTMS shell vs. without shell

reduction of leaching by the VTMS shell	Compound
70%	COc1cc(/C=C/C(=O)CC(=O)/C=C/c2ccc(O)c(OC)c2)ccc1O [Curcumin, curcumin]

test: not given; details: likelihood of association with drug induced liver injury; cited from earlier work

Compound	Likelihood Score
Cn1cnc2c(F)c(Nc3ccc(Br)cc3F)c(C(=O)NOCCO)cc21 [Binimetinib]	E*
CCS(=O)(=O)N1CC(CC#N)(n2cc(-c3ncnc4[nH]ccc34)cn2)C1 [Baricitinib]	E*
Cc1ccc(C(=O)Nc2ccc(CN3CCN(C)CC3)c(C(F)(F)F)c2)cc1C#Cc1cnc2cccnn12 [Ponatinib]	E*
CC(C)(O)CNc1nc(Nc2ccnc(C(F)(F)F)c2)nc(-c2cccc(C(F)(F)F)n2)n1 [Enasidenib]	E*
CCCS(=O)(=O)Nc1ccc(F)c(C(=O)c2c[nH]c3ncc(-c4ccc(Cl)cc4)cc23)c1F [Vemurafenib]	E*
CCc1nc(C(N)=O)c(Nc2ccc(N3CCC(N4CCN(C)CC4)CC3)c(OC)c2)nc1NC1CCOCC1 [Gilteritinib]	E*
CO[C@@H]1[C@H](N(C)C(=O)c2ccccc2)C[C@H]2O[C@]1(C)n1c3ccccc3c3c4c(c5c6ccccc6n2c5c31)C(=O)NC4 [Midostaurin]	E*
COC(=O)N[C@@H](C)CNc1nccc(-c2cn(C(C)C)nc2-c2cc(Cl)cc(NS(C)(=O)=O)c2F)n1 [Encorafenib]	E*
Cn1ncnc1[C@H]1c2n[nH]c(=O)c3cc(F)cc(c23)N[C@@H]1c1ccc(F)cc1 [Talazoparib]	E*
CCN1CCN(Cc2ccc(Nc3ncc(F)c(-c4cc(F)c5nc(C)n(C(C)C)c5c4)n3)nc2)CC1 [Abemaciclib]	E*
CC(C)(C)c1nc(-c2cccc(NS(=O)(=O)c3c(F)cccc3F)c2F)c(-c2ccnc(N)n2)s1 [Dabrafenib]	E*
O=C(Nc1cnn2ccc(N3CCC[C@@H]3c3cc(F)ccc3F)nc12)N1CC[C@H](O)C1 [Larotrectinib]	E*
C[C@H]1Oc2cc(cnc2N)-c2c(nn(C)c2C#N)CN(C)C(=O)c2ccc(F)cc21 [Lorlatinib]	E*
COc1cc2c(Nc3ccc(Br)cc3F)ncnc2cc1OCC1CCN(C)CC1 [Vandetanib]	E*
C[C@H](Nc1ncnc2[nH]cnc12)c1cc2cccc(Cl)c2c(=O)n1-c1ccccc1 [Duvelisib]	E*
COc1cc2ncnc(Nc3ccc(F)c(Cl)c3)c2cc1NC(=O)/C=C/CN1CCCCC1 [Dacomitinib]	E*

Compound	Likelihood Score
N#CC[C@H](C1CCCC1)n1cc(-c2ncnc3[nH]ccc23)cn1 [Ruxolitinib]	E*
CCOc1cc2ncc(C#N)c(Nc3ccc(OCc4ccccn4)c(Cl)c3)c2cc1NC(=O)/C=C/CN(C)C [Neratinib]	E*
COc1cc2nccc(Oc3ccc(NC(=O)C4(C(=O)Nc5ccc(F)cc5)CC4)cc3)c2cc1OC [Cabozantinib]	E*
COc1cc(Nc2ncc(F)c(Nc3ccc4c(n3)N(COP(=O)(O)O)C(=O)C(C)(C)O4)n2)cc(OC)c1OC [Fostamatinib]	E*
Cc1c(C(=O)Nc2ccc(N3C[C@@H](C)O[C@@H](C)C3)nc2)cccc1-c1ccc(OC(F)(F)F)cc1 [Sonidegib]	E*
CN1CC[C@@H](NC(=O)Nc2ccc(C#N)cc2)C[C@@H]1c1nc2ccccc2[nH]1 [Glasdegib]	E*
NC(=O)c1cccc2cn(-c3ccc([C@@H]4CCCNC4)cc3)nc12 [Niraparib]	E*
CC(C)C[C@H](NC(=O)CNC(=O)c1cc(Cl)ccc1Cl)B(O)O [Ixazomib]	E*
N#Cc1ccnc(N2C(=O)CC[C@H]2C(=O)N(c2cncc(F)c2)[C@H](C(=O)NC2CC(F)(F)C2)c2ccccc2Cl)c1 [Ivosidenib]	E*
CC(=O)c1c(C)c2cnc(Nc3ccc(N4CCNCC4)cn3)nc2n(C2CCCC2)c1=O [Palbociclib]	E*
COC(=O)c1ccc2c(c1)NC(=O)/C2=C(\Nc1ccc(N(C)C(=O)CN2CCN(C)CC2)cc1)c1ccccc1 [Nintedanib]	E*
COc1cc(Nc2c(C#N)cnc3cc(OCCCN4CCN(C)CC4)c(OC)cc23)c(Cl)cc1Cl [Bosutinib]	E*
COc1cc(N2CCC(N3CCN(C)CC3)CC2)ccc1Nc1ncc(Cl)c(Nc2ccccc2P(C)(C)=O)n1 [Brigatinib]	E*
CNCc1ccc(-c2[nH]c3cc(F)cc4c3c2CCNC4=O)cc1 [Rucaparib]	D*
COc1c(OCCCN2CCOCC2)ccc2c1N=C(NC(=O)c1cnc(N)nc1)N1CCN=C21 [Copanlisib]	E*

— patent US20220362381A1, “REMOTELY TRIGGERED THERAPY” (Bambu Vault LLC, priority 2019, published 2022)
